Target: ATP-dependent translocase ABCB1 (Mus musculus, UniProt P21447)
Assay: TP_TRANSPORTER: increase in brain concentration in mdr1a(-/-) mouse
Assay type: functional, organism-based
Settings: in vivo

ATP-dependent translocase ABCB1, sequence (P21447 whole entry): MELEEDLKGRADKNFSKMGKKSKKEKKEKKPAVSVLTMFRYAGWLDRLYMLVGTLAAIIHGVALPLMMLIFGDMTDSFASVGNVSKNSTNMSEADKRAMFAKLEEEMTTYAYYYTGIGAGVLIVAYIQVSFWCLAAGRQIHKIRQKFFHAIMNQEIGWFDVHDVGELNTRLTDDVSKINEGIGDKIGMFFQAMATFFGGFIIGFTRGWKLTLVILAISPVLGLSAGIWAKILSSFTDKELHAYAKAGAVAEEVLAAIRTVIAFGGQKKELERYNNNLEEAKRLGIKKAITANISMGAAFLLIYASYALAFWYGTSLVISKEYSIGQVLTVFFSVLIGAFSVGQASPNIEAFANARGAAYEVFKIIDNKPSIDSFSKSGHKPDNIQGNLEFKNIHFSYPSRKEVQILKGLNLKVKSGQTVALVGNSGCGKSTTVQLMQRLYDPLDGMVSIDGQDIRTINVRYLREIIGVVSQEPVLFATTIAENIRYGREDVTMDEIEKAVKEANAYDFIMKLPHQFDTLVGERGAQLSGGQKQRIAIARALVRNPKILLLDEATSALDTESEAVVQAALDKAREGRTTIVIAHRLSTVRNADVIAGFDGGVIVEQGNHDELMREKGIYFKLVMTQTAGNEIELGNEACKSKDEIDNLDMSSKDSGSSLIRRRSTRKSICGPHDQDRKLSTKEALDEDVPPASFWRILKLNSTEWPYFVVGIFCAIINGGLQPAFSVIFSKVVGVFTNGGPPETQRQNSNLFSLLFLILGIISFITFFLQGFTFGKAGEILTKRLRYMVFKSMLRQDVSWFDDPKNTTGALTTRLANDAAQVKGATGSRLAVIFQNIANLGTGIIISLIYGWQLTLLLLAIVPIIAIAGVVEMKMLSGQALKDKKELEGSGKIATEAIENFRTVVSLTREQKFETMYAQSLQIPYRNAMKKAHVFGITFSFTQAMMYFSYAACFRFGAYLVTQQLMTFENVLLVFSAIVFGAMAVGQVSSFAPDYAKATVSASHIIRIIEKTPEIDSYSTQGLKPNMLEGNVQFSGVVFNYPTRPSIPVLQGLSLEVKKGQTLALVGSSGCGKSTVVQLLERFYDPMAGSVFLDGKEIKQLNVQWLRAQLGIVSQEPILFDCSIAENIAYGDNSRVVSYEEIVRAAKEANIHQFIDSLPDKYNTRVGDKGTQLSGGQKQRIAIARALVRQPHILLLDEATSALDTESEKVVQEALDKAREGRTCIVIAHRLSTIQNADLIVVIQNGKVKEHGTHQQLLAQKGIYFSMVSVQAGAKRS

## CS(=O)(=O)O.Cc1c(N2C[C@@H](N)C3(CC3)C2)c(F)c(N)c2c(=O)c(C(=O)O)cn(C3CC3)c12
  Activity: substrate [+]

Source: ChEMBL document CHEMBL2073760, “Efflux transport of a new quinolone antibacterial agent, HSR-903, across the blood-brain barrier” (J Pharmacol Exp Ther, 1999)
